Measurements from patent US20230011398A1, “COMBINATION THERAPY APPROACH TO ELIMINATE HIV INFECTIONS” (priority 2019, published 2023).

Tests used:
HIV-1-infected T cells = assay: Annexin V / DEVD-FITC / p24 cell death assay in T cells with or without HIV-1 infection; type: cell-based, human
Description: Naïve T cells, activated T cells, CMT or EMT with or without infection with HIV-1 (NL4-3, 1 MOI) were cultured for 4 days in the presence of 30 nM CCL19 and 0.3 ng/ml IL-2 for 4 days to establish latent HIV infection. […] The cells were then incubated with 1 μM FITC-DEVD-FMK (Biovision), followed by staining with APC-Annexin V (Biolegend) and intracellular staining with PE-anti-HIV p24. The cells were analyzed by flow cytometry. The percentage of cell death was calculated by the loss of live cells negative for annexin V and DEVD staining by comparing treated and untreated groups: (untreated—treated)/untreated x 100%.

[1] = system: CMT latently infected with HIV-1; assay: HIV-1 latency reversal in latently infected central memory T cells (p24 staining, HIV-1 mRNA RT-PCR); type: cell-based, human; conditions: latently infected cells, pol RT-PCR
Source text: Flow cytometry. The following antibodies from Biolegend were used for flow cytometry: Pacific Blue-anti-mouse CD45 (1:100, 103126, clone 30-F11,) APC-anti-human CD45 (1:100, 304012, clone HI30), Pacific Blue-anti-human CD19 (1:100, 302232, clone HIB19), PE-anti-human CD4 (1:100, 317414, clone OKT4), APC/Fire-750-anti-human CD8 (1:100, 34474, clone SK1), FITC-anti-human CD56 (1:100, 392413, clone QA17A16), Pacific Blue-anti-human CD19 (1:100, 302232, clone HIB19), Pacific Blue-anti-human CD3 (1:100, 300329, clone HIT3a), PE/Cy7-anti-HLA-HLA-DR, DP, DQ (1:100, 361708, clone Tü139), PerCP/Cy5.5-anti-human CD11b (1:100, 301327, clone ICRF44), APC/Fire-750-anti-human CD163 (1:100, 333633, clone GHI/61), PE-anti-human CD123 (1:100, 306005, clone 6H6), Alexa Fluor 488 anti-human CD11c (1:100, 301618, clone 3.9), PerCP/Cy5.5-anti-human CD3 (1:100, 300328, clone HIT3a), PerCP/Cy5.5 anti-human CD123 (1:100, 306016, clone 6H6), FITC-anti-mouse CD45 (1:100, 103108, clone 30-F11), PE/Cy7 anti-human CD197 (CCR7) (1:100, 353226, clone G043H7), PE-anti-human CD45R0 (1:100, 304244, clone UCHL1), FITC-anti-human CD45RA (1:100, 304148, clone HI100) and Alexa Fluor 488-anti-CD68 (1:30, 333812, clone Y1/82A), PerCP/Cy5.5-anti-human CD19 (1:100, 302230, clone HIB19), PE-anti-human CD27 (1:100, 356406, clone M-T271) and Pacific Blue-anti-human IgD (1:100, 348224, clone IA6-2). PE-anti-human CD3 (1:100, 556612, clone SP34) and V50-anti-human CD4 (1:100, 560345, clone RPA-T4) were from BD Biosciences. The cells stained with indicated antibodies were analyzed using a BD LSR II flow cytometer (BD Biosciences). To detect HIV-1 p24, spleen cells from Hu-HSC mice were stimulated with 5 μg/ml PHA (Sigma) and 6 ng/ml IL-2 (Biolegend). The cells were stained for T cell markers, followed by fixation and permeabilization using the Cytofix/Cytoperm buffer (BD Bioscience) and intracellular staining with PE-conjugated anti-p24 (1:30, 6604667, clone KC57, Beckman Coulter). The cells were analyzed by flow cytometry using a BD LSR II flow cytometer (BD Bioscience) and FlowJo software (version 10.5.3, BD Bioscience).
T cell isolation and infection with HIV-1. Peripheral blood mononuclear cells (PBMCs) of anonymous healthy donors from the Gulf Coast Blood Center were used to purify CD4^+ T cells with anti-CD4 MACS beads (Miltenyi Biotec). CD3^+CD4^+CD45RA^+CD45RO^−CCR7^+ naïve T cells, CD3^+CD4^+CD45RA^−CD45RO^+CCR7+ central memory T cells (CMT) and CD3^+CD4^+CD45RA^−CD45RO^+CCR7^− effector memory T cells (EMT) were sorted using a BD FACSAria flow cytometer (BD Bioscience). Naive CD4^+ T cells were stimulated with 5 μg/ml PHA and 6 ng/ml IL-2 in RPMI complete medium for 2 days to generate activated CD4^+ T cells. Sorted T cell subsets or activated T cells were infected with HIV-1 CXCR4-tropic NL4-3 or CCRS-tropic AD8 (both virus clones were obtained from the NIH AIDS Reagent Program) at the indicated MOI for 2 h. The cells were washed with PBS and cultured in RPMI complete medium containing 30 nM CCL19 (Biolegend) and 0.3 ng/ml IL-2 (Biolegend) and for 4 days to establish latent HIV infection as described.
Naïve T cells, activated T cells, CMT or EMT with or without infection with HIV-1 (NL4-3, 1 MOI) were cultured for 4 days in the presence of 30 nM CCL19 and 0.3 ng/ml IL-2 for 4 days to establish latent HIV infection. The cells with or without HIV-1 infections were stimulated with 0.1 μM IDB (Ingenol-3,20-dibenzonate, ENZO Life Sciences) in the presence of 0.2 μM ABT-263 (Adooq Bioscience), 2 μM SAR405 (MedChemExpress) or 10 μM chloroquine (CQ, Sigma) as indicated for 48 h. The cells were then incubated with 1 μM FITC-DEVD-FMK (Biovision), followed by staining with APC-Annexin V (Biolegend) and intracellular staining with PE-anti-HIV p24. The cells were analyzed by flow cytometry. The percentage of cell death was calculated by the loss of live cells negative for annexin V and DEVD staining by comparing treated and untreated groups: (untreated—treated)/untreated x 100%. […]

[2] = system: HIV-1-infected cells and uninfected bystander T cells; assay: Mixed culture of HIV-1-infected and CellTrace Violet-labeled uninfected T cells; conditions: alone or together, 0.2 μM BMS-626529 present, 48 h
Description: To determine the specificity in the killing of HIV-1 infected cells, uninfected CD4 cells were labeled with CellTrace Violet dye (ThermoFisher Scientific) and mixed with HIV-1-infected cells at the ratio of 1:1. The cells were resuspended in RIPMI complete medium containing 0.2 μM BMS-626529, with 0.1 μM IDB, 0.2 μM ABT-263 and 2 μM SAR405 as indicated for 48 h. The cells were incubated with 1 μM FITC-DEVD-FMK, followed by staining with APC-Annexin and analyses by flow cytometry.

CC1=C[C@]23C(=O)[C@@H](C=C(COC(=O)c4ccccc4)[C@@H](O)[C@]2(O)[C@H]1OC(=O)c1ccccc1)[C@H]1[C@@H](C[C@H]3C)C1(C)C [IDB, ingenol 3,20-dibenzoate]
cell death in HIV-1-infected T cells (Annexin V, cleavage of DEVD) (HIV-1-infected T cells; 0.1 μM IDB, 48 h): induced cell death in HIV-1-infected T cells | cell death in uninfected cells (HIV-1-infected T cells; 0.1 μM IDB, 48 h): relatively resistant | caspase-3 activities measured by cleavage of DEVD (HIV-1-infected T cells; HIV-1-infected CMT, 100 nM IDB 24 h): increased caspase-3 activities | cell death in HIV-1-infected CMT, Annexin V staining (HIV-1-infected T cells; NL4-3 1 MOI, 100 nM IDB 24 h): induced cell death | latency reversal observed by expression of HIV-1 mRNA after stimulation [1]: Latency reversal was also observed | killing of HIV-1-infected cells in mixed culture [2]: killed HIV-1-infected cells | killing of uninfected bystander cells in mixed culture [2]: resistant
